Reference: patent publication US9598433B2, “Hepatitis C virus inhibitors” (BRISTOL-MYERS SQUIBB COMPANY, priority 2012, dated 2017)
Like-named read-outs stand apart in the source and are kept apart here.

Tests used:
[1] = test system: HCV genotype 1b (Con1) replicon in HUH-7 cells; test: HCV replicon luciferase reporter assay, genotype 1b; format: cell-based; conditions: Hepatitis C virus, 72 h, genotype 1b replicon, 3 days incubation
Procedure, shortened: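 Replication was read as Renilla luciferase signal, using 7.5 μM EnduRen substrate with a 2-h incubation at 37 °C. The signal came from a HUH-7 line constitutively expressing a luciferase-tagged 1b (Con1) replicon carrying S1179I.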

[2] = test system: HCV genotype 1a (H77 strain) replicon in HUH-7 cells; test: HCV replicon luciferase reporter assay, genotype 1a; format: cell-based; conditions: Hepatitis C virus, 72 h, genotype 1a replicon, 3 days incubation
Procedure, shortened: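 Stable HUH-7 line carrying luciferase-reporter genotype 1a (H77) replicon with adaptive NS3 P1496L and NS5A S2204I mutations; 3.0×10^3 cells/well in 4% FCS, 0.5% DMSO, twenty-point 3-fold titration, 3 days at 37 °C. Renilla luminescence with 7.5 μM EnduRen; EC50 by four-parameter logistic fit; CC50 by multiplexed Cell Titer-Blue.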

Row | Compound | EC50 ([1]; read-out: LE_1b (EC50)) [nM] | EC50 ([1]; read-out: LE_1b (EC50, range)) [nM] | EC50 ([2]; read-out: LE_1a (EC50)) [nM] | EC50 ([2]; read-out: LE_1a (EC50, range)) [nM]
1 | C[C@@H]1CC/C=C\[C@@H]2C[C@@]2(C(=O)NS(=O)(=O)C2(C)CC2)NC(=O)[C@@H]2C[C@@H](Oc3nc4c(c5ccccc35)CCCO4)CN2C(=O)[C@@H](NC(=O)OC(C)(C)C(F)F)[C@H](C)O1 [Compound 2304, 1,1-difluoro-2-methylpropan-2-yl ((2R,6S,7S,9R,13aS,14aR,16aS,Z)-2-((2,3-dihydro-1H-pyrano[2,3-c]isoquinolin-6-yl)oxy)-7,9-dimethyl-14a-(((1-methylcyclopropyl)sulfonyl)carbamoyl)-5,16-dioxo-2,3,5,6,7,9,10,11,13a,14,14a,15,16,16a-tetradecahydro-1H-cyclopropa[i]pyrrolo[1,2-e][1,5,8]oxadiazacyclopentadecin-6-yl)carbamate] | 0.64 | 0.51 to 1 | 0.49 | 0.1 to 0.5
2 | C[C@@H]1CC/C=C\[C@@H]2C[C@@]2(C(=O)NS(=O)(=O)C2(C)CC2)NC(=O)[C@@H]2C[C@@H](Oc3nc4c(c5ccccc35)CCCO4)CN2C(=O)[C@@H](NC(=O)OC(C)(C)C(F)(F)F)[C@H](C)O1 [Compound 2305, 1,1,1-trifluoro-2-methylpropan-2-yl ((2R,6S,7S,9R,13aS,14aR,16aS,Z)-2-((2,3-dihydro-1H-pyrano[2,3-c]isoquinolin-6-yl)oxy)-7,9-dimethyl-14a-(((1-methylcyclopropyl)sulfonyl)carbamoyl)-5,16-dioxo-2,3,5,6,7,9,10,11,13a,14,14a,15,16,16a-tetradecahydro-1H-cyclopropa[i]pyrrolo[1,2-e][1,5,8]oxadiazacyclopentadecin-6-yl)carbamate] | – | 0.51 to 1 | – | 0.51 to 1
3 | COc1ccc2c(O[C@@H]3C[C@H]4C(=O)N[C@]5(C(=O)NS(=O)(=O)C6(C)CC6)C[C@H]5/C=C\CC[C@@H](C)O[C@@H](C)[C@H](NC(=O)OC(C)(C)C(F)(F)F)C(=O)N4C3)nc3c(c2c1)CCCO3 [Compound 2306, 1,1,1-trifluoro-2-methylpropan-2-yl ((2R,6S,7S,9R,13aS,14aR,16aS,Z)-2-((9-methoxy-2,3-dihydro-1H-pyrano[2,3-c]isoquinolin-6-yl)oxy)-7,9-dimethyl-14a-(((1-methylcyclopropyl)sulfonyl)carbamoyl)-5,16-dioxo-2,3,5,6,7,9,10,11,13a,14,14a,15,16,16a-tetradecahydro-1H-cyclopropa[i]pyrrolo[1,2-e][1,5,8]oxadiazacyclopentadecin-6-yl)carbamate] | – | 0.1 to 0.5 | – | 0.1 to 0.5
4 | CC[C@@H]1O[C@H](C)CC/C=C\[C@@H]2C[C@@]2(C(=O)NS(=O)(=O)C2(C)CC2)NC(=O)[C@@H]2C[C@@H](Oc3nc4c(c5cc(OC)ccc35)CCCO4)CN2C(=O)[C@H]1NC(=O)OC(C)(C)C(F)(F)F [Compound 2307, 1,1,1-trifluoro-2-methylpropan-2-yl ((2R,6S,7S,9R,13aS,14aR,16aS,Z)-7-ethyl-2-((9-methoxy-2,3-dihydro-1H-pyrano[2,3-c]isoquinolin-6-yl)oxy)-9-methyl-14a-(((1-methylcyclopropyl)sulfonyl)carbamoyl)-5,16-dioxo-2,3,5,6,7,9,10,11,13a,14,14a,15,16,16a-tetradecahydro-1H-cyclopropa[i]pyrrolo[1,2-e][1,5,8]oxadiazacyclopentadecin-6-yl)carbamate] | – | 0.1 to 0.5 | – | 0.1 to 0.5
5 | CC[C@@H]1O[C@H](C)CC/C=C\[C@@H]2C[C@@]2(C(=O)NS(=O)(=O)C2(C)CC2)NC(=O)[C@@H]2C[C@@H](Oc3nc4c(c5cc(OC)ccc35)CCCO4)CN2C(=O)[C@H]1NC(=O)OC(C)(C)C(C)(F)F [Compound 2308, 3,3-difluoro-2-methylbutan-2-yl ((2R,6S,7S,9R,13aS,14aR,16aS,Z)-7-ethyl-2-((9-methoxy-2,3-dihydro-1H-pyrano[2,3-c]isoquinolin-6-yl)oxy)-9-methyl-14a-(((1-methylcyclopropyl)sulfonyl)carbamoyl)-5,16-dioxo-2,3,5,6,7,9,10,11,13a,14,14a,15,16,16a-tetradecahydro-1H-cyclopropa[i]pyrrolo[1,2-e][1,5,8]oxadiazacyclopentadecin-6-yl)carbamate] | – | 0.1 to 0.5 | – | 0.1 to 0.5
6 | COc1ccc2c(O[C@@H]3C[C@H]4C(=O)N[C@]5(C(=O)NS(=O)(=O)C6(C)CC6)C[C@H]5/C=C\CC[C@@H](C)O[C@@H](C)[C@H](NC(=O)OC(C)(C)C(C)(F)F)C(=O)N4C3)nc3c(c2c1)CCCO3 [Compound 2309, 3,3-difluoro-2-methylbutan-2-yl ((2R,6S,7S,9R,13aS,14aR,16aS,Z)-2-((9-methoxy-2,3-dihydro-1H-pyrano[2,3-c]isoquinolin-6-yl)oxy)-7,9-dimethyl-14a-(((1-methylcyclopropyl)sulfonyl)carbamoyl)-5,16-dioxo-2,3,5,6,7,9,10,11,13a,14,14a,15,16,16a-tetradecahydro-1H-cyclopropa[i]pyrrolo[1,2-e][1,5,8]oxadiazacyclopentadecin-6-yl)carbamate] | – | 0.51 to 1 | – | 0.51 to 1
7 | COc1ccc2c(O[C@@H]3C[C@H]4C(=O)N[C@]5(C(=O)NS(=O)(=O)C6(C)CC6)C[C@H]5/C=C\CC[C@@H](C)O[C@@H](C)[C@H](NC(=O)OC(C)(C)C(F)F)C(=O)N4C3)nc3c(c2c1)CCCO3 [Compound 2310, 1,1-difluoro-2-methylpropan-2-yl ((2R,6S,7S,9R,13aS,14aR,16aS,Z)-2-((9-methoxy-2,3-dihydro-1H-pyrano[2,3-c]isoquinolin-6-yl)oxy)-7,9-dimethyl-14a-(((1-methylcyclopropyl)sulfonyl)carbamoyl)-5,16-dioxo-2,3,5,6,7,9,10,11,13a,14,14a,15,16,16a-tetradecahydro-1H-cyclopropa[i]pyrrolo[1,2-e][1,5,8]oxadiazacyclopentadecin-6-yl)carbamate] | – | 0.1 to 0.5 | – | 0.1 to 0.5
8 | CC[C@@H]1O[C@H](C)CC/C=C\[C@@H]2C[C@@]2(C(=O)NS(=O)(=O)C2(C)CC2)NC(=O)[C@@H]2C[C@@H](Oc3nc4c(c5cc(OC)ccc35)CCCO4)CN2C(=O)[C@H]1NC(=O)OC(C)(C)C(F)F [Compound 2311, 1,1-difluoro-2-methylpropan-2-yl ((2R,6S,7S,9R,13aS,14aR,16aS,Z)-7-ethyl-2-((9-methoxy-2,3-dihydro-1H-pyrano[2,3-c]isoquinolin-6-yl)oxy)-9-methyl-14a-(((1-methylcyclopropyl)sulfonyl)carbamoyl)-5,16-dioxo-2,3,5,6,7,9,10,11,13a,14,14a,15,16,16a-tetradecahydro-1H-cyclopropa[i]pyrrolo[1,2-e][1,5,8]oxadiazacyclopentadecin-6-yl)carbamate] | – | 0.1 to 0.5 | – | 0.1 to 0.5
9 | COc1cnc(O[C@@H]2C[C@H]3C(=O)N[C@]4(C(=O)NS(=O)(=O)C5(C)CC5)C[C@H]4/C=C\CO[C@@H](C)C[C@@H](C)[C@H](NC(=O)OC(C)(C)C)C(=O)N3C2)c2ccccc12 [Compound 2601, tert-butyl ((2R,6S,7R,9S,13aS,14aR,16aS,Z)-2-((4-methoxyisoquinolin-1-yl)oxy)-7,9-dimethyl-14a-(((1-methylcyclopropyl)sulfonyl)carbamoyl)-5,16-dioxo-2,3,5,6,7,8,9,11,13a,14,14a,15,16,16a-tetradecahydro-1H-cyclopropa[e]pyrrolo[2,1-i][1,7,10]oxadiazacyclopentadecin-6-yl)carbamate] | – | 1.01 to 5 | – | 1.01 to 5
10 | COc1ccc2c(O[C@@H]3C[C@H]4C(=O)N[C@]5(C(=O)NS(=O)(=O)C6CC6)C[C@H]5/C=C\CO[C@@H](C)C[C@@H](C)[C@H](NC(=O)OC(C)(C)C)C(=O)N4C3)nccc2c1 [Compound 2603, tert-butyl ((2R,6S,7R,9S,13a5,14aR,16aS,Z)-14a-((cyclopropylsulfonyl)carbamoyl)-2-((6-methoxyisoquinolin-1-yl)oxy)-7,9-dimethyl-5,16-dioxo-2,3,5,6,7,8,9,11,13a,14,14a,15,16,16a-tetradecahydro-1H-cyclopropa[e]pyrrolo[2,1-i][1,7,10]oxadiazacyclopentadecin-6-yl)carbamate] | 6.64 | 5.01 to 35 | 9.08 | 5.01 to 35
11 | COc1ccc2c(O[C@@H]3C[C@H]4C(=O)N[C@]5(C(=O)NS(=O)(=O)C6CC6)C[C@H]5/C=C\CO[C@@H](C)C[C@@H](C)[C@H](NC(=O)OC(C)(C)C(F)(F)F)C(=O)N4C3)nccc2c1 [Compound 2604, 1,1,1-trifluoro-2-methylpropan-2-yl ((2R,6S,7R,9S,13aS,14aR,16aS,Z)-14a-((cyclopropylsulfonyl)carbamoyl)-2-((6-methoxyisoquinolin-1-yl)oxy)-7,9-dimethyl-5,16-dioxo-2,3,5,6,7,8,9,11,13a,14,14a,15,16,16a-tetradecahydro-1H-cyclopropa[e]pyrrolo[2,1-i][1,7,10]oxadiazacyclopentadecin-6-yl)carbamate] | – | 1.01 to 5 | – | 5.01 to 35
12 | CC[C@@H]1O[C@H](C)CC/C=C\[C@@H]2C[C@@]2(C(=O)NS(=O)(=O)C2(C)CC2)NC(=O)[C@@H]2C[C@@H](Oc3ncc(OC)c4ccc(F)cc34)CN2C(=O)[C@H]1NC(=O)OC(C)(C)C(C)(F)F [Compound 2605, 3,3-difluoro-2-methylbutan-2-yl ((2R,6S,7S,9R,13aS,14aR,16aS,Z)-7-ethyl-2-((7-fluoro-4-methoxyisoquinolin-1-yl)oxy)-9-methyl-14a-(((1-methylcyclopropyl)sulfonyl)carbamoyl)-5,16-dioxo-2,3,5,6,7,9,10,11,13a,14,14a,15,16,16a-tetradecahydro-1H-cyclopropa[i]pyrrolo[1,2-e][1,5,8]oxadiazacyclopentadecin-6-yl)carbamate] | – | 0.1 to 0.5 | – | 0.51 to 1
